Key:
BAT cells = assay: Serotonin on isoproterenol-stimulated cAMP and thermogenic program in BAT cells; type: cell-based, mouse; conditions: serotonin prior to isoproterenol
Protocol: To examine whether serotonin could alter cAMP and the induction of the thermogenic program in a cell autonomous manner, BAT cells were treated with the concentrations of serotonin observed in the BAT of Tph1^+/+ mice fed a HFD (FIG. 9b) prior to stimulation with isoproterenol ([…]). Serotonin treatment attenuated isoproterenol-stimulated cAMP and phosphorylation of protein kinase A substrates such as hormone sensitive lipase (HSL […]-FIG. 9c) and importantly also blunted the induction of the thermogenic gene program (FIG. 9d-f). […] Cell Culture. An immortalized brown adipocyte (BA) cell line derived from mouse fetal brown fat (as described in Uldry et al., Cell metabolism, 3 (2006) 333-341) was cultured and differentiated as previously described in Mottillo, Journal of Biological Chemistry, 287 (2012) 25038-25048. Briefly, confluent cells were placed in induction media (0.5 mM IBMX; 0.25 mM indomethacin; 2 μg/ml dexamethasone; 1 nM T3, 20 nM insulin) for two days and subsequently maintained on differentiation media (1 nM T3, 20 nM insulin). All experiments were performed on cultures 6-8 days post-induction. Unless otherwise indicated, cells were rinsed with PBS and media was changed to HEPES-buffered Krebs Ringer buffer (HKRB)+1% BSA. Where indicated, BAs were treated with serotonin for 30 min (100 μM; Sigma) followed by isoproterenol (1 nM, Sigma) for 4 h. […] cAMP measurements. cAMP levels were measured in BA stimulated for 10 min with isoproterenol (1 nM). […] The cAMP levels were quantified by ELISA (Biomedical Technologies Inc.) as previously described (Mottillo et al., American Journal of Physiology-Endocrinology And Metabolism, 301 (2011) […]-[…]). […] The expression pattern of various genes was quantified by qRT-PCR analysis, as previously described (Mottillo et al., American journal of physiology, 293 (2007) […]-1197). […] 25 ng of cDNA was analyzed in a 10 μl quantitative PCR reaction (Amplitaq Gold) as previously described. […] The extracts were recovered and proteins were quantified by using the bicinchoninic acid method (Pierce). […]

5-HT receptor = assay: Isoproterenol-induced lipolysis (FFA release) in immortalized BAT cells; type: cell-based, mouse; conditions: 5-HT at 100 μM, n=2
Protocol: Briefly, confluent cells were placed in induction media (0.5 mM IBMX; 0.25 mM indomethacin; 2 μg/ml dexamethasone; 1 nM T3, 20 nM insulin) for two days and subsequently maintained on differentiation media (1 nM T3, 20 nM insulin). All experiments were performed on cultures 6-8 days post-induction. Unless otherwise indicated, cells were rinsed with PBS and media was changed to HEPES-buffered Krebs Ringer buffer (HKRB)+1% BSA. Where indicated, BAs were treated with serotonin for 30 min (100 μM; Sigma) followed by isoproterenol (1 nM, Sigma) for 4 h. The serotonin receptor antagonist, methysergide (3 μM) was used 45 min prior treatment with serotonin as above.

5-HT2A = biological target: T1, 5-HT2A (Mus musculus, UniProt P35363); assay: Fluo-4 Ca2+ signals in brown adipocytes; type: cell-based
T1 construct: endogenous in cells; host or cells: immortalized murine brown adipocytes (differentiated)
Source text: Immortalized BA progenitor cells obtained from 5-HT2A KO (B6; 129-5-HT2Atm1a/Nju from Nanjing Biomedical Research Institute of Nanjing University) mice were differentiated for 9 days to produce mature BAs. Cells were then stained with fluo-4 and treated with different concentrations of 5-HT to obtain a dose response curve. Values from BAs expressing 5-HT2A used for other experiments were plotted as a WT comparison.

UCP1 = assay: Ucp1 promoter activity, Ucp1 mRNA and UCP1 protein in brown adipocytes; type: cell-based, mouse
Protocol: Using RNA-Seq, cultured human brown and beige adipocytes were interrogated for 5-HT receptor mRNA expression. Immortalized murine brown adipocytes (BAs) were treated with or without the selective 5-HT reuptake inhibitor (SSRI), paroxetine (250 nM). Subsequent studies were conducted with and without 5-HT2A agonists (1 pM-10 uM TCB-2, 1 pM-10 uM AL-34662, and 1 pM-10 uM NBOH-2C-CN) and 5-HT2A antagonists (100 fM-100 pM MDL-100907, 100 pM-10 uM xylamidine tosylate, 1 nM ketanserin, 10 nM altanserin, 100 fM-100 pM EMD-281,014, and 100 pM-10 uM sarpogrelate hydrochloride).
BA progenitors were isolated and immortalized from WT and serotonin transporter (SERT; Gene: Slc6a4) KO mice. These cells were then differentiated for 7 days to obtain mature BAs. BAs were then treated with different doses of 5-HT for 4 hours. RNA was isolated and quantified using RT-qPCR with probes specific for Slc6a4, Ucp1 and PPIA.
BA progenitors were isolated from mice expressing a transgene where the luciferase gene is driven by the Ucp1 promoter (i.e. Ucp1-Luc2 mice; a.k.a. ThermoMouse; Jackson Laboratories). Upon 9 days of differentiation, these BAs were treated for 4 hours with different doses of 5-HT. Because in vitro there is not a continuous supply of 5-HT as there is in vivo, cells were treated with paroxetine to inhibit the uptake and consequent degradation of 5-HT, and to observe 5-HT receptor specific effects. These cells were then lysed, incubated with a luciferin assay cocktail, and the light generated quantified on a microplate reader.

brown adipose tissue = assay: Acute 5-HT with or without xylamidine pretreatment: BAT activity in vivo; parameters: species or system mice
Protocol: Mice housed at 30° C. were injected with xylamidine (3 mg/kg, −2 hour), 5-HT (5 mg/kg, −1 hour) and/or CL-316,243 (1 mg/kg, −20 min). […] Interscapular surface temperature under saline (C) and CL-316,243 (D) conditions were quantified. n=6. † indicates interaction effect via 2-way ANOVA. * indicates significant difference from saline via bonferonni post-hoc test. In all graphs, bars represent mean and error bars represent S.E.M;
(§1) To investigate effects in vivo, 5-HT (5 mg/kg i.p.) was acutely administered to mice with or without a peripherally-restricted 5-HT2A antagonist (xylamidine tosylate) (3 mg/kg i.p.) to assess BAT function. Chow fed female FVBNJ mice (Jackson laboratories) were fasted for 6 hours. Each mouse was intraperitoneal injected with Vehicle (0.9% NaCl) or Xylamidine (3 mg/kg in 0.9% NaCl) at −100 minutes, followed by Vehicle or 5-HT (5 mg/kg in 0.9% NaCl) at −40 minutes, and finally Glucose ([…]) at 0 minutes. Blood glucose was monitored at the indicated times (FIG. 22). Chow mice were administered xylamidine tosylate (3 mg/kg daily) via intraperitoneal injection for ˜5 weeks. Mice were then moved to anaesthetized and injected with either saline or CL-316,243. Oxygen consumption was recorded while at 30° C. Finally, xylamidine tosylate (3 mg/kg i.p. daily) was administered to mice on a HFD and indices of whole body metabolism, such as resting energy expenditure, glucose tolerance and NAFLD, were evaluated. The mRNA and protein expression of markers of beige adipose tissue (UCP1, PRDM16, NDUFB8, SDHB, MTCO1, UQCRC2 and ATP5A) were also evaluated.

[1] = system: Chow fed female FVBNJ mice; assay: Acute xylamidine, 5-HT and glucose injection: glucose tolerance; type: in vivo; conditions: acute administration 3 mg/kg i.p.; effect larger when pre-treated with 5-HT
Protocol: as §1

Chow mice = assay: Repeated xylamidine tosylate in chow mice: BAT energy expenditure with saline or CL-316,243; type: in vivo
Protocol: as §1

mice on a HFD = assay: Chronic xylamidine tosylate in mice on a HFD; type: in vivo
Protocol: (B) graphically depicts the fat content of mice from (A). […] Bars/points represent mean and error bars indicate S.E.M;
as §1

[2] = chronic administration, high fat diet

T1 sequence (P35363 whole entry): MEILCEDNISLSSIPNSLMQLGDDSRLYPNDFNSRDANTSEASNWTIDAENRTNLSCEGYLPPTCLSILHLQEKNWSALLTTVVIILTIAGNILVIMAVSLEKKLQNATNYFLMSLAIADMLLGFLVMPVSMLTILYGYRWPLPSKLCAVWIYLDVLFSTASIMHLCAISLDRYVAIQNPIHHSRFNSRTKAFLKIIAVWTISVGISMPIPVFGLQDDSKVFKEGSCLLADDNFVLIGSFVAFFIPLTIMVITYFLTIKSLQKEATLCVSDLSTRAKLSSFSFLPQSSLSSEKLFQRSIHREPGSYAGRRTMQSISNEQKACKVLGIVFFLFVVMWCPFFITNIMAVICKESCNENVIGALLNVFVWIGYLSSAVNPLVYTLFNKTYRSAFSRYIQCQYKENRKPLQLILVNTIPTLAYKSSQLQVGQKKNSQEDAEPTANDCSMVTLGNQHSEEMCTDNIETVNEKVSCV

NCCc1c[nH]c2ccc(O)cc12 [5-HT, 5-hydroxytryptamine]
isoproterenol-stimulated cAMP (BAT cells): attenuated
phosphorylation of protein kinase A substrates (HSL S660) (BAT cells): attenuated
induction of the thermogenic gene program (BAT cells; Pgc1a, Pdk4, Ucp1): blunted
isoproterenol-induced increases in lipolysis (5-HT receptor): blunts
Ca2+ levels (5-HT2A; brown adipocytes stained with Fluo-4, agonist treatment): increased
Ucp1 mRNA (UCP1; brown adipocytes): decreased
Ucp1 promoter activity (UCP1; brown adipocytes): decreased
UCP1 protein levels (UCP1; brown adipocytes, chronic treatment for NBOH-2C-CN): decreased
UCP1 protein content (UCP1; cultured brown adipocytes, only in the presence of paroxetine (SSRI), 8 days): decreased
brown adipose tissue associated oxygen consumption and inter-scapular surface area temperature (brown adipose tissue; BAT activated with CL-316,243, 5 mg/kg 5-HT): significantly attenuated
markers of brown adipose tissue activity (VO2, interscapular surface temperature) (brown adipose tissue; thermoneutral conditions, BAT inactive (saline), 5 mg/kg 5-HT): no effect

COc1cccc(OC(C)CNC(=N)Cc2cccc(C)c2)c1.Cc1ccc(S(=O)(=O)O)cc1 (stereo not shown) [xylamidine tosylate]
5-HT induced Ca2+ transients (5-HT2A; pre-treatment with antagonist): attenuated
effects of 5-HT on BAT activity (brown adipose tissue; pre-treatment 3 mg/kg, CL-316,243 activated BAT): completely blocked
glucose tolerance [1]: improved
brown adipose tissue specific energy expenditure (Chow mice; chow mice, repeated administration 3 mg/kg daily ~5 weeks, CL-316,243): increased
energy expenditure when BAT is inactive (Chow mice; saline): no effect
oxygen consumption, heat production, and non-moving oxygen consumption (mice on a HFD; 3 mg/kg daily, high fat diet): increased
glucose tolerance (mice on a HFD; 3 mg/kg daily, high fat diet (45% of calories from fat)): improved
iWAT levels of UCP1 and mitochondrial proteins (mice on a HFD; [2]): increased
iWAT mRNA levels of Prdm16 (mice on a HFD; [2]): elevated
liver triglycerides levels (mice on a HFD; [2]): significantly reduced
weight gain and increases in fat mass (mice on a HFD; [2]): prevented

Reference: patent publication US11278549B2, “Method of treating obesity” (McMaster University, priority 2013, dated 2022)
